Assay results published in paper PMC8546428, “Convergent olfactory trace amine-associated receptors detect biogenic polyamines with distinct motifs via a conserved binding site” (The Journal of Biological Chemistry, 2021).
Numbering of substitutions follows the chain as printed.

Experiments:
[1] = biological target: T1, mTAAR9 E7.36D (Mus musculus, UniProt Q5QD04, E294D); experiment: CRE-luciferase reporter assay, mTAAR9 mutant in Hana3A; format: cell-based; settings: read-out: EC50 (mean ± S.D., n = 3)
T1 construct: expressed in transfected cells; host or cells: Hana3A (HEK293-derived)
T1 sequence (Q5QD04 1-348 E294D): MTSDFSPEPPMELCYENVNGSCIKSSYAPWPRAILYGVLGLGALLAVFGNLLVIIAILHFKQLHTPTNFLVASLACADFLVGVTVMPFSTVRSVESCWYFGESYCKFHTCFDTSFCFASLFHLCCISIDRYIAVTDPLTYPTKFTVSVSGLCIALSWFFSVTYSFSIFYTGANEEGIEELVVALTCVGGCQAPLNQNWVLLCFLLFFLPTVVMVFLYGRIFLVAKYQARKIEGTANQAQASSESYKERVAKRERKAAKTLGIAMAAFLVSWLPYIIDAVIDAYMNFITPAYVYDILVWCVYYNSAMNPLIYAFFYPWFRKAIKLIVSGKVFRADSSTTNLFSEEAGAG

[2] = biological target: T2, mTAAR9 W7.40F (Mus musculus, UniProt Q5QD04, W298F); experiment: as above; format: cell-based; settings: read-out: EC50 (mean ± S.D., n = 3)
T2 construct: expressed in transfected cells; host or cells: Hana3A (HEK293-derived)
T2 sequence (Q5QD04 1-348 W298F): T1 sequence (Q5QD04 1-348 E294D) with D294E, W298F

[3] = biological target: T3, sTAAR365 T7.42A (Petromyzon marinus, UniProt A0A678XMK4, T298A)
T3 sequence (A0A678XMK4 1-365 T298A): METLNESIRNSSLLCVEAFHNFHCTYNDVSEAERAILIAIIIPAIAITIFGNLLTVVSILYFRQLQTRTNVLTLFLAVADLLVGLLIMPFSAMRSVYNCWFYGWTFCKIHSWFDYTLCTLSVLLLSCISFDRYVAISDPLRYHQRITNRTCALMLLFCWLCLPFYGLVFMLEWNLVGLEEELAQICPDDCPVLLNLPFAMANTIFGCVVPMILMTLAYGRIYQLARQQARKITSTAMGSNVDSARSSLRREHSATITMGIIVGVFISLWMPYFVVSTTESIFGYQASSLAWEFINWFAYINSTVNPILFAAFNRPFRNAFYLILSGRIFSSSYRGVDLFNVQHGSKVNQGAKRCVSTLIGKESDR

[4] = biological target: sTAAR365 Y7.43A (Petromyzon marinus, UniProt A0A678XMK4, Y299A); experiment: cell-based
[5] = system: Cat TAAR9; settings: cat TAAR9, ligand 1 mM, Fig. 1B
Experimental: (§1) We examined the response of TAAR9s from rat, human, hamster, and rabbit to the stimulation of 1 mM amines using a well-established cAMP response element (CRE)-driven luciferase reporter assay based on Golf-mediated cAMP signal transduction ([5], [24]). In addition to the four mTAAR9 ligands, we included putrescine, which is also a polyamine and precursor of spermine/spermidine biosynthesis.
(§2) Mammalian TAAR9 plasmids were transfected into Hana3A cells along with a cAMP-dependent luciferase reporter plasmid (CRE-Luc). Transfected cells were incubated with tested ligands, and luciferase activity was quantified with a […] substrate as a reporter for Golf-mediated TAAR activation. Luciferase activity was indicated by the luminescence value and normalized as a fold-increase over the response to the vehicle stimuli (mean ± S.D., n = 3). […] B, Hana3A cells expressing mouse, rat, human, cat, hamster, and rabbit TAAR9 were incubated with either vehicle or tested ligands (1 mM) and assayed for reporter activity. C, concentration-dependent luciferase activity in Hana3A cells expressing mouse, rat, and cat TAAR9 receptors stimulated with cadaverine, spermidine, and spermine.
(§3) The firefly luciferase and renilla luciferase activity was measured with a BioTek microplate reader following manufacturer’s instructions.

[6] = biological target: hamster TAAR9 (Mesocricetus auratus, UniProt A0A1U7R5X1); settings: hamster TAAR9, ligand 1 mM, Fig. 1B
Experimental: as §1, §2, §3

[7] = biological target: human TAAR9 (Homo sapiens, UniProt Q96RI9); settings: human TAAR9, ligand 1 mM, Fig. 1B
Experimental: as §1, §2, §3

[8] = biological target: rabbit TAAR9 (Oryctolagus cuniculus, UniProt G1SUU9); settings: rabbit TAAR9, ligand 1 mM, Fig. 1B
Experimental: as §1, §2, §3

[9] = biological target: T4, sTAAR365 Y6.51L (Petromyzon marinus, UniProt A0A678XMK4, Y272L); settings: HEK293T, cAMP production
T4 sequence (A0A678XMK4 1-365 Y272L): T3 sequence (A0A678XMK4 1-365 T298A) with Y272L, A298T

[10] = system: sTAAR348; settings: expressed in HEK293T cells; cited from earlier work

Chain of human TAAR9 (Q96RI9 whole entry): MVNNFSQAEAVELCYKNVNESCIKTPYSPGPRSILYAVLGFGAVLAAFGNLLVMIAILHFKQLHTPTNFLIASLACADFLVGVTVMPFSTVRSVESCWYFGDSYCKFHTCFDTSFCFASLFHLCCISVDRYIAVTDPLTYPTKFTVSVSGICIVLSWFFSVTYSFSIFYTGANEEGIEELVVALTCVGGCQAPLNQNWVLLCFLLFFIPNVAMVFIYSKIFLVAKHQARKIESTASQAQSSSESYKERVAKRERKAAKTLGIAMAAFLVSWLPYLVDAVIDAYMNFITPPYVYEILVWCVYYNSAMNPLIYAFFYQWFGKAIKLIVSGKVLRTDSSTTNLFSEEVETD
Chain of hamster TAAR9 (A0A1U7R5X1 1-348): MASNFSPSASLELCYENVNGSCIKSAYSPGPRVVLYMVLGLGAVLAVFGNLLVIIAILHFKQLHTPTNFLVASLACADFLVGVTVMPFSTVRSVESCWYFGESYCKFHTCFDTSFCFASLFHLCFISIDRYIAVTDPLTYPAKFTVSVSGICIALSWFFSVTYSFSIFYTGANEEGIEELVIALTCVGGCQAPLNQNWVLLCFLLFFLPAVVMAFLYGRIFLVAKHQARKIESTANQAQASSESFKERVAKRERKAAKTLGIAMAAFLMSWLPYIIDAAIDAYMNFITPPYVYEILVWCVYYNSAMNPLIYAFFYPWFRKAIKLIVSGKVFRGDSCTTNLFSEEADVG
Chain of sTAAR365 Y7.43A (A0A678XMK4 whole entry Y299A): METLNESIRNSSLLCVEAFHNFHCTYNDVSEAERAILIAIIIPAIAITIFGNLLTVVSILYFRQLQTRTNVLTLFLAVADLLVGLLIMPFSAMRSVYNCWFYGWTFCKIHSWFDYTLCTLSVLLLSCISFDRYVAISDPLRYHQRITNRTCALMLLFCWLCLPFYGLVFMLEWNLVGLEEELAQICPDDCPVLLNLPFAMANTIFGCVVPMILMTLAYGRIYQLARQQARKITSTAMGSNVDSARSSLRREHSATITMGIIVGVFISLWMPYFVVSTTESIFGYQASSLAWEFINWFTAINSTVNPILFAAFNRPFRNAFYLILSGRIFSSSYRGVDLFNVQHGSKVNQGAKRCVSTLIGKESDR
Chain of rabbit TAAR9 (G1SUU9 1-348): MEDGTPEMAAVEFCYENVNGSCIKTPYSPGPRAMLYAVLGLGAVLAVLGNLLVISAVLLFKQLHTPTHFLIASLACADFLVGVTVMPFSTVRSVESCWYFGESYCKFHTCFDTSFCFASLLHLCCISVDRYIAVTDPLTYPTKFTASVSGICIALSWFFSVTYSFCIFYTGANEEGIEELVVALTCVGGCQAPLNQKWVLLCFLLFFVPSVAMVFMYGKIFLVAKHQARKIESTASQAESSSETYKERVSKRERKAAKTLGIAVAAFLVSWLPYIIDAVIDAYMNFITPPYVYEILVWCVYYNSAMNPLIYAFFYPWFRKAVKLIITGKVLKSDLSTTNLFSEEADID

NCCCCCN [cadaverine]
EC50 [1]: > 1 mM
EC50 [2]: 83 ± 35 µM
increase of EC50 vs wild-type sTAAR365 [3]: over three
EC50 [4]: 144 ± 11 µM

NCCCCN [putrescine]
reporter activity (activation of TAAR9) [5]: not activated
reporter activity (activation of TAAR9) [6]: not activated
reporter activity (activation of TAAR9) [7]: not activated
reporter activity (activation of TAAR9) [8]: not activated
EC50 (mean ± S.D., n = 3) [9]: loss

NCCCNCCCCNCCCN [spermine]
response of sTAAR348 [10]: responds
